Experimental data: patent US9604989B2, “Imidazopyridazines as Akt kinase inhibitors” (Bayer Intellectual Property GmbH, priority 2011, dated 2017)
pIC50: −log10 of the molar value.

Tests used:
[1] = system: KPL-4 breast cancer cell line; assay: Tumor cell proliferation assay (CellTiter-Glo), KPL-4; type: cell-based; conditions: Homo sapiens, KPL4, 72 h drug exposure, read-out: KLP-4 median IC50
Experimental: (§1) Biological Assay 4.0: Tumor Cell Proliferation Assays
(§2) Compounds were tested in a cell-based assay that measures the capacity of the compounds to inhibit tumour cell proliferation following a 72 h drug exposure. Cell viability is determined using CellTiter-Glow® (CTG, Promega, cat#G7571/2/3). The CellTiter-Glo® Luminescent Cell Viability Assay is a homogeneous method to determine the number of viable cells in culture.
(§3) Detection is based on using the luciferase reaction to measure the amount of ATP from viable cells. The amount of ATP in cells correlates with cell viability. Within minutes after a loss of membrane integrity, cells lose the ability to synthesize ATP, and endogenous ATPases destroy any remaining ATP; thus the levels of ATP fall precipitously.
(§4) For each cell line assayed, cells were plated onto a separate plate for determination of fluorescence at t=0 hour and t=72 hour time points. Following overnight incubation at 37° C., chemiluminescence values for the t=0 samples were determined after adding 10 μl medium and 100 μl CTG solution according to manufacture protocol. Plates for the t=72 hour time points were treated with compounds diluted into growth medium at ten times final concentration added in 10 μL to the cell culture plate. Cells were then incubated for 72 hours at 37° C. Chemiluminescence values for the t=72 hour samples were determined. […] Experiments were controlled using a reference compound as standard.

phospho-AKT at S473 = assay: Cellular p-AKT1/2/3-S473 assay in KPL-4 cells; type: cell-based; conditions: Homo sapiens, KPL4; KPL-4 breast tumour cell line, compound treatment 2 hours; read-out: pAKT-S473 median IC50
Experimental: (§5) The molecular mechanism of action was investigated in a set of experiments to assess the inhibition of the PI3K-AKT-mTOR pathway in responsive cell lines such as KPL-4 breast tumour cell line (PIK3CA^H1047R, HER2^O/E and hormone independent). The phospho-substrates of PI3K-AKT-mTOR axis were used as the read-outs to reflect pathway inhibition. Cells were seeded at 60-80% confluency per well in 96-well cell culture plates. After overnight incubation at 37° C. 5% CO2, cells were treated with compounds and vehicle at 37° C. for 2 hours. […] All measurements where at least done in duplicates and confirmed by independent repetition.
Alternatively pAKT-S473 was measured using the “Akt Duplex” of the MULTI-SPOT® Assay System (Fa. Meso Scale Discovery, Cat#N41100B-1) following manufacturers instructions. Each assay used 20 μg of protein extract and measured total AKT and p-AKT content simultaneously in one well. All measurements where at least done in duplicates and confirmed by independent repetition. Values for P-AKT are expressed as percentage of P-AKT level compared to total-AKT content of the extracts.

p-4E-BP1 at T70 = assay: Cellular p-4E-BP1-T70 assay in KPL-4 cells; type: cell-based; conditions: Homo sapiens, KPL4; KPL-4 breast tumour cell line, compound treatment 2 hours; read-out: P4EBP1-T70 median IC50
Experimental: as §5

[2] = system: MCF-7 breast tumour cell line; assay: Tumor cell proliferation assay (CellTiter-Glo), MCF-7; type: cell-based; conditions: Homo sapiens, MCF7, 72 h drug exposure, read-out: MCF-7 median IC50
Experimental: as §1, §2, §3, §4

[3] = molecular target: His-tagged human recombinant kinase full-length Akt2 (Homo sapiens (Human), UniProt P31751); assay: Akt2 kinase assay (Akt2 TR-FRET assay); type: biochemical; conditions: 10 μM ATP, 60 min at 22° C., read-out: Akt2 median IC50
[4] = molecular target: His-tagged human recombinant kinase full-length Akt1 (Homo sapiens (Human), UniProt P31749); assay: Akt1 kinase assay (Akt1 TR-FRET assay); type: biochemical; conditions: 10 μM ATP, 60 min at 22° C., read-out: Akt1 median IC50
Chain of His-tagged human recombinant kinase full-length Akt1 (P31749 whole entry): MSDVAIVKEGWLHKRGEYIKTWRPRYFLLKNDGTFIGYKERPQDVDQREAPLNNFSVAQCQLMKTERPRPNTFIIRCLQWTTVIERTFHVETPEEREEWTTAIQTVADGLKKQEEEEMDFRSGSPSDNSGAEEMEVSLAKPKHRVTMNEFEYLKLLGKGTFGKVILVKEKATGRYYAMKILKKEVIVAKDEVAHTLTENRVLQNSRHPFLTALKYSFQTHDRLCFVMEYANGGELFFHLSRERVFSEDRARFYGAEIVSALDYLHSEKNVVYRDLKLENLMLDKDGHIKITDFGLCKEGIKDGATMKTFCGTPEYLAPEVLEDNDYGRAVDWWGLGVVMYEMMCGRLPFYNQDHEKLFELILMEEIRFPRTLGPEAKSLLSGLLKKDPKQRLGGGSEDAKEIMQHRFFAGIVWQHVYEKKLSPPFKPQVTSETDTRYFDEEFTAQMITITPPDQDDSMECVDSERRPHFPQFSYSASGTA

Chain of His-tagged human recombinant kinase full-length Akt2 (P31751 whole entry): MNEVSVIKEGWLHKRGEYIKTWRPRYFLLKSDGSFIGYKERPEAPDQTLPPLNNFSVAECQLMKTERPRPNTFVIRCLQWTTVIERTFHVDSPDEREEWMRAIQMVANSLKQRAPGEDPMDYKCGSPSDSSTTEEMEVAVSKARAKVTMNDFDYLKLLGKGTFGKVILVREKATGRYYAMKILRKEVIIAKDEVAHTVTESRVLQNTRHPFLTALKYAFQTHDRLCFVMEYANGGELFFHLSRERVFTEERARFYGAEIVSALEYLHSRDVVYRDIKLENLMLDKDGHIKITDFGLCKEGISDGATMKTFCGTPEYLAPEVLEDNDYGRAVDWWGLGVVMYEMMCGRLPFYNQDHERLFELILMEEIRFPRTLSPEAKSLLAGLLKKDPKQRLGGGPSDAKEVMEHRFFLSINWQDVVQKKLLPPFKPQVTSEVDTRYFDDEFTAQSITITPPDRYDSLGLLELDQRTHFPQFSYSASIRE

pIC50 [1] | pIC50 (phospho-AKT at S473) | pIC50 (p-4E-BP1 at T70) | pIC50 [2] | pIC50 [3] | pIC50 [4] | Structure (SMILES)
5.77 | 6.92 | 6.03 | 6.03 | 7.64 | 7.96 | CCOc1cc(OCC)c2nc(-c3ccc(C4(N)CCC4)cc3)c(-c3ccccc3)n2n1 [Example 76, 1-[4-(6,8-Diethoxy-3-phenylimidazo[1,2-b]pyridazin-2-yl)phenyl]cyclobutanamine]
< 5.00 | 6.00 | 5.00 | < 5.00 | 6.55 | 6.96 | COC(=O)c1cc(-c2ncc[nH]2)c2nc(-c3ccc(C4(N)CCC4)cc3)c(-c3ccccc3)n2n1 [Example 58, Methyl 2-[4-(1-aminocyclobutyl)phenyl]-8-(1H-imidazol-2-yl)-3-phenylimidazo[1,2-b]pyridazine-6-carboxylate]
5.22 | 6.40 | 5.60 | 5.59 | 7.24 | 7.29 | CCOc1cc(Cl)nn2c(-c3ccccc3)c(-c3ccc(C4(N)CCC4)cc3)nc12 [Example 30, 1-[4-(6-Chloro-8-ethoxy-3-phenylimidazo[1,2-b]pyridazin-2-yl)phenyl]cyclobutanamine]
5.80 | 8.42 | 9.52 | 6.12 | 6.92 | 7.34 | CNC(=O)c1ccnn2c(-c3ccccc3)c(-c3ccc(C4(N)CCC4)cc3)nc12 [Example 63, 2-[4-(1-Aminocyclobutyl)phenyl]-N-methyl-3-phenylimidazo[1,2-b]pyridazine-8-carboxamide]
6.20 | 7.85 | 6.80 | 6.33 | 6.96 | 6.89 | COc1ccnn2c(-c3ccccc3)c(-c3ccc(C4(N)CCC4)cc3)nc12 [Example 11, 1-[4-(8-Methoxy-3-phenylimidazo[1,2-b]pyridazin-2-yl)phenyl]cyclobutanamine]
5.77 | 6.51 | 5.68 | 5.77 | 7.01 | 7.19 | CCc1ccc2nc(-c3ccc(C4(N)CCC4)cc3)c(-c3ccccc3)n2n1 [Example 2, 1-[4-(6-Ethyl-3-phenylimidazo[1,2-b]pyridazin-2-yl)phenyl]cyclobutanamine]
5.82 | 8.43 | 5.28 | 6.17 | 7.18 | 7.68 | CNC(=O)c1ccc2nc(-c3ccc(C4(N)CCC4)cc3)c(-c3ccccc3)n2n1 [Example 68, 2-[4-(1-Aminocyclobutyl)phenyl]-N-methyl-3-phenylimidazo[1,2-b]-pyridazine-6-carboxamide]
5.62 | 6.21 | 5.62 | 5.74 | 6.72 | 7.07 | CCOC(=O)c1ccc2nc(-c3ccc(C4(N)CCC4)cc3)c(-c3ccccc3)n2n1 [Example 4, Ethyl 2-[4-(1-aminocyclobutyl)phenyl]-3-phenylimidazo[1,2-b]pyridazine-6-carboxylate]
5.49 | 7.09 | 5.60 | 5.70 | 6.29 | 6.24 | CC(=O)Nc1ccc2nc(-c3ccc(C4(N)CCC4)cc3)c(-c3ccccc3)n2n1 [Example 37, N-{2-[4-(1-Aminocyclobutyl)phenyl]-3-phenylimidazo[1,2-b]pyridazin-6-yl}acetamide]
5.00 | 6.68 | 6.04 | 5.00 | 5.55 | 5.70 | NC1(c2ccc(-c3nc4ccc(O)nn4c3-c3ccccc3)cc2)CCC1 [Example 79, 2-[4-(1-Aminocyclobutyl)phenyl]-3-phenylimidazo[1,2-b]pyridazin-6-ol]
5.74 | 7.44 | 6.32 | 5.74 | 7.54 | 7.82 | NC1(c2ccc(-c3nc4c(-c5cc[nH]n5)ccnn4c3-c3ccccc3)cc2)CCC1 [Example 27, 1-{4-[3-Phenyl-8-(1H-pyrazol-3-yl)imidazo[1,2-b]pyridazin-2-yl]phenyl}cyclobutanamine]
